Data published in the supplement of paper PMC11208160.

Assay: recombinant UMI read abundance after kanamycin selection (control-corrected) (log10(CPM+1)); higher = more efficient recombination; extreme values may be limits of the assay; sequences stand for … in AGTGCAGAGAAAATCGGCCAGTTTTCTCTGCCTGCAGTCCGCATGCCGTGGGACCCCTTGGGTTCTAACCTGTTGCCTAGATTTATGCAGCGGACTGCCTTTCTCCCAAAGTGATAAACCGG…AGGTTGGTTTCACT; site = the 11-nt donor
How it was run: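 In a pooled Escherichia coli screen for the IS621 bridge recombinase, donor and donor-binding-loop pairs were each placed with a 12-nt UMI on a plasmid bearing a promoterless kanamycin gene. This library was co-electroporated with a target plasmid encoding a fixed target and T7-inducible recombinase, and cells were plated either on IPTG (0.07 mM) plus kanamycin or without selection, in two replicates each. Recombinant UMIs were PCR-amplified across the donor–target junction and sequenced, and counts were converted to CPM, averaged over replicates, scaled by control-derived factors and reported as log10(CPM+1).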
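Further: IS621 bridge recombinase in Escherichia coli cells against a fixed T5 target plasmid.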

Sequence	recombinant UMI read abundance (log10)
TCAGAAACATGGACCGGTTTTCCCGGTAATCCGTATTTGTA (site TCAGAAACTTA)	2.07
TCAGACACATGGACCGGTTTTCCCGGTAATCCGTATTTGCG (site TCAGAAACTCG)	0
TCAGACACATGGACCGGTTTTCCCGGTAATCCGTATTTGCG (site TCAGACACTCG)	1.77
TCAGACACATGGACCGGTTTTCCCGGTAATCCGTATTTGCG (site TCAGAGACTCG)	0.0043
TCAGACACATGGACCGGTTTTCCCGGTAATCCGTATTTGCG (site TCAGATACTCG)	0.946
TCAGAGACATGGACCGGTTTTCCCGGTAATCCGTATTTGAA (site TCAGAGACTTT)	1.74
TCAGAGACATGGACCGGTTTTCCCGGTAATCCGTATTTGCA (site TCAGAGACTAG)	0.204
TCAGAGACATGGACCGGTTTTCCCGGTAATCCGTATTTGCA (site TCAGAGACTCG)	1.34
TCAGAGACATGGACCGGTTTTCCCGGTAATCCGTATTTGCA (site TCAGAGACTGG)	0.635
TCAGAGACATGGACCGGTTTTCCCGGTAATCCGTATTTGCA (site TCAGAGACTTG)	2.49
TCAGAGACATGGACCGGTTTTCCCGGTAATCCGTATTTGCC (site TCAGAGACTAG)	0.85
TCAGAGACATGGACCGGTTTTCCCGGTAATCCGTATTTGCC (site TCAGAGACTCG)	0.683
TCAGAGACATGGACCGGTTTTCCCGGTAATCCGTATTTGCC (site TCAGAGACTGG)	1.58
TCAGAGACATGGACCGGTTTTCCCGGTAATCCGTATTTGCC (site TCAGAGACTTG)	1.62
TCAGAGACATGGACCGGTTTTCCCGGTAATCCGTATTTGCT (site TCAGAGACTAG)	2.38
TCAGAGACATGGACCGGTTTTCCCGGTAATCCGTATTTGCT (site TCAGAGACTCG)	0.601
TCAGAGACATGGACCGGTTTTCCCGGTAATCCGTATTTGCT (site TCAGAGACTGG)	2.21
TCAGAGACATGGACCGGTTTTCCCGGTAATCCGTATTTGCT (site TCAGAGACTTG)	0.868
TCAGAGACATGGACCGGTTTTCCCGGTAATCCGTATTTGGG (site TCAGAGACTCA)	0.0103
TCAGAGACATGGACCGGTTTTCCCGGTAATCCGTATTTGGG (site TCAGAGACTCC)	0
TCAGAGACATGGACCGGTTTTCCCGGTAATCCGTATTTGGG (site TCAGAGACTCG)	0
TCAGAGACATGGACCGGTTTTCCCGGTAATCCGTATTTGGG (site TCAGAGACTCT)	0.0246
TCAGATTCATGGACCGGTTTTCCCGGTAATCCGTATTTGGA (site TCAGATTCTTC)	1.34

Sequence	recombinant UMI read abundance (log10)
TCAGGGACATGGACCGGTTTTCCCGGTAATCCGTATTTGGG (site TCAGGGACTCC)	0.00795
TCAGGTTCATGGACCGGTTTTCCCGGTAATCCGTATTTGCT (site TCAGGTTCTAG)	1.27
TCAGTAGCATGGACCGGTTTTCCCGGTAATCCGTATTTGCA (site ACAGTATCTTG)	2.25
TCAGTAGCATGGACCGGTTTTCCCGGTAATCCGTATTTGCA (site TCAGTAGCTTG)	1.9
TCAGTCTCATGGACCGGTTTTCCCGGTAATCCGTATTTGAT (site TCAGTCTCTAT)	2.42
TCAGTGCCATGGACCGGTTTTCCCGGTAATCCGTATTTGCG (site TCAGTGCCTCG)	0.0165
TCATACCCATGGACCGGTTTTCCCGGTAATCCGTATTTGCA (site TCATACACTTG)	0
TCATACCCATGGACCGGTTTTCCCGGTAATCCGTATTTGCA (site TCATACCCTTG)	0.0304
TCATACCCATGGACCGGTTTTCCCGGTAATCCGTATTTGCA (site TCATACGCTTG)	0
TCATACCCATGGACCGGTTTTCCCGGTAATCCGTATTTGCA (site TCATACTCTTG)	0.995
TCATACGCATGGACCGGTTTTCCCGGTAATCCGTATTTGCA (site TCATACACTTG)	1.03
TCATACGCATGGACCGGTTTTCCCGGTAATCCGTATTTGCA (site TCATACCCTTG)	0.169
TCATACGCATGGACCGGTTTTCCCGGTAATCCGTATTTGCA (site TCATACGCTTG)	2.25
TCATACGCATGGACCGGTTTTCCCGGTAATCCGTATTTGCA (site TCATACTCTTG)	0.604
TCATACTCATGGACCGGTTTTCCCGGTAATCCGTATTTGCA (site ACATACTCTTG)	1.34
TCATACTCATGGACCGGTTTTCCCGGTAATCCGTATTTGCA (site CCATACTCTTG)	2.03
TCATACTCATGGACCGGTTTTCCCGGTAATCCGTATTTGCA (site GCATACTCTTG)	1.3
TCATACTCATGGACCGGTTTTCCCGGTAATCCGTATTTGCA (site TAATACTCTTG)	1.45
TCATACTCATGGACCGGTTTTCCCGGTAATCCGTATTTGCA (site TCAAACTCTTG)	1.19
TCATACTCATGGACCGGTTTTCCCGGTAATCCGTATTTGCA (site TCACACTCTTG)	1.3
TCATACTCATGGACCGGTTTTCCCGGTAATCCGTATTTGCA (site TCAGACTCTTG)	0
TCATACTCATGGACCGGTTTTCCCGGTAATCCGTATTTGCA (site TCATAATCTTG)	0.464
TCATACTCATGGACCGGTTTTCCCGGTAATCCGTATTTGCA (site TCATACACTTG)	0.64

Sequence	recombinant UMI read abundance (log10)
TCATACTCATGGACCGGTTTTCCCGGTAATCCGTATTTGCA (site TCATACCCTTG)	0.303
TCATACTCATGGACCGGTTTTCCCGGTAATCCGTATTTGCA (site TCATACGCTTG)	0.00277
TCATACTCATGGACCGGTTTTCCCGGTAATCCGTATTTGCA (site TCATACTCTAG)	0
TCATACTCATGGACCGGTTTTCCCGGTAATCCGTATTTGCA (site TCATACTCTCG)	0.514
TCATACTCATGGACCGGTTTTCCCGGTAATCCGTATTTGCA (site TCATACTCTGG)	0
TCATACTCATGGACCGGTTTTCCCGGTAATCCGTATTTGCA (site TCATACTCTTA)	0
TCATACTCATGGACCGGTTTTCCCGGTAATCCGTATTTGCA (site TCATACTCTTC)	0.0158
TCATACTCATGGACCGGTTTTCCCGGTAATCCGTATTTGCA (site TCATACTCTTG)	2.69
TCATACTCATGGACCGGTTTTCCCGGTAATCCGTATTTGCA (site TCATACTCTTT)	0.0879
TCATACTCATGGACCGGTTTTCCCGGTAATCCGTATTTGCA (site TCATAGTCTTG)	1.54
TCATACTCATGGACCGGTTTTCCCGGTAATCCGTATTTGCA (site TCATATTCTTG)	0
TCATACTCATGGACCGGTTTTCCCGGTAATCCGTATTTGCA (site TCATCCTCTTG)	0.111
TCATACTCATGGACCGGTTTTCCCGGTAATCCGTATTTGCA (site TCATGCTCTTG)	0
TCATACTCATGGACCGGTTTTCCCGGTAATCCGTATTTGCA (site TCATTCTCTTG)	0
TCATACTCATGGACCGGTTTTCCCGGTAATCCGTATTTGCA (site TCCTACTCTTG)	1.79
TCATACTCATGGACCGGTTTTCCCGGTAATCCGTATTTGCA (site TCGTACTCTTG)	2.35
TCATACTCATGGACCGGTTTTCCCGGTAATCCGTATTTGCA (site TCTTACTCTTG)	2.13
TCATACTCATGGACCGGTTTTCCCGGTAATCCGTATTTGCA (site TGATACTCTTG)	1.78
TCATACTCATGGACCGGTTTTCCCGGTAATCCGTATTTGCA (site TTATACTCTTG)	1.2
TCATACTCATGGACCGGTTTTCCCGGTAATCCGTATTTGCC (site TCATACTCTAG)	1.07
TCATACTCATGGACCGGTTTTCCCGGTAATCCGTATTTGCC (site TCATACTCTCG)	0
TCATACTCATGGACCGGTTTTCCCGGTAATCCGTATTTGCC (site TCATACTCTGG)	2.23
